Reference: patent publication US20210318306A1, “Compositions for and Methods of Neutralizing Lipopolysaccharide Toxicity and Methods of Identifying the Same” (priority 2020, published 2021)
Several values for one entry are separate records, joined by “and”; a condition that tells them apart may be missing. Identical values can stand only once.

System: HEK-Blue hTLR4 cells
Assay: IL-8 dose response in HEK-Blue hTLR4 cells with P.g. LPS 1 μg/ml and 3X-24X dilutions of simple solutions (Example 4)
Format: cell-based, human
Description: HEK-Blue hTLR4 cells (Invivogen, cat #hkb-htlr4) were cultured in a DMEM culture medium supplemented with 10% FBS and 1% penstrep at 37° C. with 5% CO2. LPS from Porphyromonas gingivalis (P.g. LPS; Invivogen, cat #tlrl-pglps and cat #tlrl-ppglps) activates TLR4 receptor and downstream inflammation in HEK-Blue hTLR4 cells. P.g. LPS is co-incubated with HEK-Blue hTLR4 cells in the absence or presence of the simple solutions. Standard and ultrapure P.g. LPS were both used due to ultrapure being a specific ligand for the TLR4 receptor while standard LPS is a ligand for both TLR2 and TLR4.
The simple solutions a) Zinc Oxide (ZnO), b) Zinc Citrate (ZnCitrate), c) Zinc Oxide+Zinc Citrate (Dual Zinc; DZ), d) Dual Zinc+Arginine (DZA, zinc oxide, zinc citrate and arginine), and e) L-Arginine (Arg) were diluted at different concentrations with culture medium.
2) experiments using 3×, 6×, 12×, and 24× dilution fold of the simple solutions (see Table 6 below).
HEK-Blue hTLR4 cells were plated in 96-well plates and grown until confluent at 37° C. and 5% CO2 in HEK-blue selection media (DMEM with 10% FBS, 1% penicillin-streptomycin, and antibiotics for HEK-blue selection (Invivogen, cat #hb-sel)). Cells were co-incubated overnight with varying concentrations of different zinc actives as well as arginine and stimulated with either 0.1 μg/mL standard P. gingivalis LPS or 1 μg/mL ultrapure P. gingivalis LPS. Cell supernatants were collected for human inflammation cytokine panels using Multiplex and ELISA analysis.
Multiplex analysis was performed using the MILLIPLEX MAP Human Cytokine/Chemokine Magnetic Bead Panel—Immunology Multiplex Assay for IL-1, IL-6, IL-8, TNFα, and GM-CSF (Millipore Sigma, cat #HCYTOMAG-60K).
In order to understand the role of Arginine in the inhibition of LPS induced inflammation, a dose response experiment was performed using ultrapure P.g. LPS, which only specifically targets TLR4 receptor, in order to maximize the activation of NF-kB and expression of IL-8.
The testing samples were prepared as the stock simple solutions. […] The first serial dilution was made 3 times with water, a dilution factor simulating dilution of toothpastes while brushing. Additional serial dilutions were made by 2-fold of the first dilution to study dose response effect.

[1] = 3X dilution of stock simple solution (Table 6) with P.g. LPS (1 μg/ml)
[2] = 6X dilution of stock simple solution (Table 6) with P.g. LPS (1 μg/ml)
[3] = 12X dilution of stock simple solution (Table 6) with P.g. LPS (1 μg/ml)
[4] = 24X dilution of stock simple solution (Table 6) with P.g. LPS (1 μg/ml)

With `N=C(N)NCCC[C@H](N)C(=O)O` [Arg, L-Arginine] the “IL-8 Concentration, Average” value [1] was 236.6 pg/mL, the “IL-8 Concentration, replicate” value [1] was 248.5 pg/mL and 224.7 pg/mL and the “IL-8 Concentration, Average” value [2] was 1480.7 pg/mL. The “IL-8 Concentration, replicate” value [2] was 1649.9 pg/mL and 1311.5 pg/mL, the “IL-8 Concentration, Average” value [3] was 2903.3 pg/mL and the “IL-8 Concentration, replicate” value [3] was 2891.2 pg/mL and 2915.5 pg/mL. For the same compound, the “IL-8 Concentration, Average” value [4] was 3020.6 pg/mL, the “IL-8 Concentration, replicate” value [4] was 3003.8 pg/mL and 3037.4 pg/mL and the “inhibition of IL-8 (in words)” value (at 3 times dilution of the stock simple solution) was “strong inhibition”. For the same compound, the “inhibition of IL-8 (in words)” value (when dilution folds increase) was “lose the inhibition of IL-8 gradually”.
